# Reference: patent US20260262643A1, “HERBICIDAL BENZOXAZINES” (FMC CORPORATION, priority 2022, published 2026)
# Experiments:
# ryegrass, Italian [1] = experiment: Test A postemergence; assay type: in vivo, Lolium multiflorum
# Method in brief: (§1)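 Plants were grown in loam and sand and treated preemergence or postemergence (one- to two-leaf stage, 2–10 cm) with compound in solvent plus surfactant. Response was scored against untreated controls after 10 greenhouse days, where 0 means no effect and 100 complete control.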
# galium = experiment: Test A postemergence; assay type: in vivo, Galium aparine
# Method in brief: as §1
# oat, wild [2] = experiment: Test A postemergence; assay type: in vivo, Avena fatua
# Method in brief: as §1
# ryegrass, Italian [3] = experiment: Test A preemergence; assay type: in vivo, Lolium multiflorum
# Method in brief: as §1
# soybean [4] = experiment: Test A postemergence; assay type: in vivo, Glycine max
# Method in brief: as §1
# barnyardgrass = experiment: Test B flooded paddy test; assay type: in vivo, Echinochloa crus-galli; settings: 250 g ai/ha, Flood, 13 days, 0 to 100 scale (0 no effect, 100 complete control)
# Method in brief: (§2)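 Species grown to 2-leaf stage; pots flooded 3 cm above soil and compound applied directly to paddy water, depth maintained throughout. After 13 days in greenhouse, plants visually rated against controls on 0–100 scale (0 no effect, 100 complete control); dash means no result.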
# foxtail, giant [5] = experiment: Test A preemergence; assay type: in vivo, Setaria faberi
# Method in brief: as §1
# sedge, umbrella = experiment: Test B flooded paddy test; assay type: in vivo, Cyperus difformis; settings: 250 g ai/ha, Flood, 13 days, 0 to 100 scale (0 no effect, 100 complete control)
# Method in brief: as §2
# blackgrass [6] = experiment: Test A preemergence; assay type: in vivo, Alopecurus myosuroides
# Method in brief: as §1
# soybean [7] = experiment: Test A preemergence; assay type: in vivo, Glycine max
# Method in brief: as §1
# ragweed [8] = experiment: Test A postemergence; assay type: in vivo, Ambrosia artemisiifolia
# Method in brief: as §1
# pigweed, palmer [9] = experiment: Test A postemergence; assay type: in vivo, Amaranthus palmeri
# Method in brief: as §1
# pigweed, palmer [10] = experiment: Test A preemergence; assay type: in vivo, Amaranthus palmeri
# Method in brief: as §1
# corn [11] = experiment: Test A preemergence; assay type: in vivo, Zea mays
# Method in brief: as §1
# goosegrass [12] = experiment: Test A preemergence; assay type: in vivo, Eleusine indica
# Method in brief: as §1
# goosegrass [13] = experiment: Test A postemergence; assay type: in vivo, Eleusine indica
# Method in brief: as §1
# corn [14] = experiment: Test A postemergence; assay type: in vivo, Zea mays
# Method in brief: as §1
# wheat [15] = experiment: Test A postemergence; assay type: in vivo, Triticum aestivum
# Method in brief: as §1
# ducksalad = experiment: Test B flooded paddy test; assay type: in vivo, Heteranthera limosa; settings: 250 g ai/ha, Flood, 13 days, 0 to 100 scale (0 no effect, 100 complete control)
# Method in brief: as §2
# rice = experiment: Test B flooded paddy test; assay type: in vivo, Oryza sativa; settings: 250 g ai/ha, Flood, 13 days, 0 to 100 scale (0 no effect, 100 complete control)
# Method in brief: as §2
# oat, wild [16] = experiment: Test A preemergence; assay type: in vivo, Avena fatua
# Method in brief: as §1
# kochia [17] = experiment: Test A postemergence; assay type: in vivo, Bassia scoparia
# Method in brief: as §1
# wheat [18] = experiment: Test A preemergence; assay type: in vivo, Triticum aestivum
# Method in brief: as §1
# kochia [19] = experiment: Test A preemergence; assay type: in vivo, Bassia scoparia
# Method in brief: as §1
# ragweed [20] = experiment: Test A preemergence; assay type: in vivo, Ambrosia artemisiifolia
# Method in brief: as §1
# blackgrass [21] = experiment: Test A postemergence; assay type: in vivo, Alopecurus myosuroides
# Method in brief: as §1
# foxtail, giant [22] = experiment: Test A postemergence; assay type: in vivo, Setaria faberi
# Method in brief: as §1
# horseweed = experiment: Test A postemergence; assay type: in vivo, Erigeron canadensis
# Method in brief: as §1
# [23] = 125 g ai/ha, postemergence, 10 days, visual injury, 0 to 100 scale (0 no effect, 100 complete control)
# [24] = 500 g ai/ha, Postemergence, 0 to 100 scale
# [25] = 125 g ai/ha, visual injury after 10 days, 0 to 100 scale, 0 is no effect, 100 is complete control
# [26] = 500 g ai/ha, 0 to 100 scale (0 no effect, 100 complete control), 10 days
# [27] = 125 g ai/ha, postemergence, 10 days, 0 to 100 scale, 0 no effect, 100 complete control
# [28] = 500 g ai/ha, postemergence, 10 days, visual injury, 0 to 100 scale (0 no effect, 100 complete control)
structure (smiles),measurement,setting,value
Cc1cccc2c1O[C@@H](C)CN2C(=O)c1cccc(-n2cnc(C3CC3)n2)c1 [Compound 54],"Plant response rating, Ryegrass, Italian","ryegrass, Italian [1]; [23]",30
same,"Plant response rating, Ryegrass, Italian","ryegrass, Italian [1]; [24]",60
same,"Plant response rating, Galium",galium; [23],100
same,"Plant response rating, Galium",galium; [24],100
same,"Plant response rating, Oat, Wild","oat, wild [2]; [23]",20
same,"Plant response rating, Oat, Wild","oat, wild [2]; [24]",40
same,"Plant response rating, Ryegrass, Italian","ryegrass, Italian [3]; [25]",70
same,"Plant response rating, Ryegrass, Italian","ryegrass, Italian [3]; [26]",100
same,"Plant response rating, Soybean",soybean [4]; [23],100
same,"Plant response rating, Soybean",soybean [4]; [24],100
same,"Plant response rating, Barnyardgrass",barnyardgrass,25
same,"Plant response rating, Foxtail, Giant","foxtail, giant [5]; [25]",90
same,"Plant response rating, Foxtail, Giant","foxtail, giant [5]; [26]",100
same,"Plant response rating, Sedge, Umbrella","sedge, umbrella",90
same,"Plant response rating, Blackgrass",blackgrass [6]; [25],40
same,"Plant response rating, Blackgrass",blackgrass [6]; [26],80
same,"Plant response rating, Soybean",soybean [7]; [25],0
same,"Plant response rating, Soybean",soybean [7]; [26],40
same,"Plant response rating, Ragweed",ragweed [8]; [23],0
same,"Plant response rating, Ragweed",ragweed [8]; [24],50
same,"Plant response rating, Pigweed, Palmer","pigweed, palmer [9]; [23]",50
same,"Plant response rating, Pigweed, Palmer","pigweed, palmer [9]; [24]",60
same,"Plant response rating, Pigweed, Palmer","pigweed, palmer [10]; [25]",60
same,"Plant response rating, Pigweed, Palmer","pigweed, palmer [10]; [26]",100
same,"Plant response rating, Corn",corn [11]; [25],30
same,"Plant response rating, Corn",corn [11]; [26],60
same,"Plant response rating, Goosegrass",goosegrass [12]; [25],90
same,"Plant response rating, Goosegrass",goosegrass [12]; [26],100
same,"Plant response rating, Goosegrass",goosegrass [13]; [23],40
same,"Plant response rating, Goosegrass",goosegrass [13]; [24],50
same,"Plant response rating, Corn",corn [14]; [23],30
same,"Plant response rating, Corn",corn [14]; [24],40
same,"Plant response rating, Wheat",wheat [15]; [23],20
same,"Plant response rating, Wheat",wheat [15]; [24],40
same,"Plant response rating, Ducksalad",ducksalad,30
same,"Plant response rating, Rice",rice,30
same,"Plant response rating, Oat, Wild","oat, wild [16]; [25]",20
same,"Plant response rating, Oat, Wild","oat, wild [16]; [26]",50
same,"Plant response rating, Kochia",kochia [17]; [23],80
same,"Plant response rating, Kochia",kochia [17]; [24],90
same,"Plant response rating, Wheat",wheat [18]; [25],20
same,"Plant response rating, Wheat",wheat [18]; [26],30
same,"Plant response rating, Kochia",kochia [19]; [25],80
same,"Plant response rating, Kochia",kochia [19]; [26],90
same,"Plant response rating, Ragweed",ragweed [20]; [25],0
same,"Plant response rating, Ragweed",ragweed [20]; [26],0
same,"Plant response rating, Blackgrass",blackgrass [21]; [23],0
same,"Plant response rating, Blackgrass",blackgrass [21]; [24],50
same,"Plant response rating, Foxtail, Giant","foxtail, giant [22]; [23]",70
same,"Plant response rating, Foxtail, Giant","foxtail, giant [22]; [24]",90
same,"Plant response rating, Horseweed",horseweed; [23],0
same,"Plant response rating, Horseweed",horseweed; [24],20
CCc1ncn(-c2cccc(C(=O)N3C[C@H](C)Oc4c(Cl)cccc43)c2)n1 [Compound 91],"Ryegrass, Italian plant response rating","ryegrass, Italian [1]; [27]",80
same,"Plant response rating, Ryegrass, Italian","ryegrass, Italian [1]; [28]",100
same,Galium plant response rating,galium; [27],100
same,"Plant response rating, Galium",galium; [28],100
same,"Oat, Wild plant response rating","oat, wild [2]; [27]",50
same,"Plant response rating, Oat, Wild","oat, wild [2]; [28]",90
same,"Plant response rating, Ryegrass, Italian","ryegrass, Italian [3]; [25]",90
same,"Plant response rating, Ryegrass, Italian","ryegrass, Italian [3]; [26]",100
same,Soybean plant response rating,soybean [4]; [27],100
same,"Plant response rating, Soybean",soybean [4]; [28],100
same,"Plant response rating, Barnyardgrass",barnyardgrass,25
same,"Plant response rating, Foxtail, Giant","foxtail, giant [5]; [25]",90
same,"Plant response rating, Foxtail, Giant","foxtail, giant [5]; [26]",100
same,"Plant response rating, Sedge, Umbrella","sedge, umbrella",35
same,"Plant response rating, Blackgrass",blackgrass [6]; [25],80
same,"Plant response rating, Blackgrass",blackgrass [6]; [26],90
same,"Plant response rating, Soybean",soybean [7]; [25],20
same,"Plant response rating, Soybean",soybean [7]; [26],70
same,Ragweed plant response rating,ragweed [8]; [27],30
same,"Plant response rating, Ragweed",ragweed [8]; [28],70
same,"Pigweed, Palmer plant response rating","pigweed, palmer [9]; [27]",70
same,"Plant response rating, Pigweed, Palmer","pigweed, palmer [9]; [28]",90
same,"Plant response rating, Pigweed, Palmer","pigweed, palmer [10]; [25]",90
same,"Plant response rating, Pigweed, Palmer","pigweed, palmer [10]; [26]",100
same,"Plant response rating, Corn",corn [11]; [25],30
same,"Plant response rating, Corn",corn [11]; [26],60
same,"Plant response rating, Goosegrass",goosegrass [12]; [25],100
same,"Plant response rating, Goosegrass",goosegrass [12]; [26],100
same,Goosegrass plant response rating,goosegrass [13]; [27],80
same,"Plant response rating, Goosegrass",goosegrass [13]; [28],90
same,Corn plant response rating,corn [14]; [27],60
same,"Plant response rating, Corn",corn [14]; [28],80
same,Wheat plant response rating,wheat [15]; [27],30
same,"Plant response rating, Wheat",wheat [15]; [28],80
same,"Plant response rating, Ducksalad",ducksalad,90
same,"Plant response rating, Rice",rice,0
same,"Plant response rating, Oat, Wild","oat, wild [16]; [25]",10
same,"Plant response rating, Oat, Wild","oat, wild [16]; [26]",90
same,Kochia plant response rating,kochia [17]; [27],80
same,"Plant response rating, Kochia",kochia [17]; [28],100
same,"Plant response rating, Wheat",wheat [18]; [25],0
same,"Plant response rating, Wheat",wheat [18]; [26],20
same,"Plant response rating, Kochia",kochia [19]; [25],90
same,"Plant response rating, Kochia",kochia [19]; [26],100
same,"Plant response rating, Ragweed",ragweed [20]; [25],0
same,"Plant response rating, Ragweed",ragweed [20]; [26],30
same,Blackgrass plant response rating,blackgrass [21]; [27],90
same,"Plant response rating, Blackgrass",blackgrass [21]; [28],100
same,"Foxtail, Giant plant response rating","foxtail, giant [22]; [27]",80
same,"Plant response rating, Foxtail, Giant","foxtail, giant [22]; [28]",90
same,Horseweed plant response rating,horseweed; [27],0
same,"Plant response rating, Horseweed",horseweed; [28],20
